Laboratory results as given in patent publication US20100285959A1, “HERBICIDAL MIXTURES” (priority 2006, published 2010).

Experiments:
giant foxtail (SETFA) [1] = assay: Test 1 field trial, preemergence; type: in vivo, Setaria faberi
Excerpt: (§1) Corn seeds (hybrid ‘Pioneer 34N43’) were planted in mid spring season, 3.8 cm deep in a silt loam soil having 4.6% organic matter and a pH of 6. Plots were 10.7 m long by 1.5 m wide with rows spaced 76 cm apart. Seeds were spaced 18 cm apart within the rows. The field was managed using conventional tillage practices. […] Results are summarized in Table 1 and are the means of the three replicates. […] Colby's Equation (Colby, S. R. “Calculating Synergistic and Antagonistic Responses of Herbicide Combinations,” Weeds, 15(1), pp 20-22 (1967)) calculates the expected additive effect of herbicidal mixtures, and for two active ingredients is of the form:
(§2) Pa+b=Pa+Pb−(PaPb/100) • wherein Pa+b is the percentage effect of the mixture expected from additive contribution of the individual components, • Pa is the observed percentage effect of the first active ingredient at the same use rate as in the mixture, and • Pb is the observed percentage effect of the second active ingredient at the same use rate as in the mixture.

field pennycress (THLAR) = assay: Test 1 field trial, preemergence; type: in vivo, Thlaspi arvense; settings: 28 DAA
Excerpt: as §1, §2

corn (ZEAMD) [2] = assay: Test 5 field trial, postemergence; type: in vivo, Zea mays ssp. indentata; settings: hybrid Pioneer 38H69, corn (Zea mays ssp. indentata), in vivo
Excerpt: (§3) Corn seeds (hybrid ‘Pioneer 38H69’) were planted in mid spring season, 5.1 cm deep in a silty clay loam soil having 3% organic matter and a pH of 6.5. Plots were 9.1 m long by 3.0 m wide with rows spaced 76 cm apart. The field was managed using conventional tillage practices. […] All treatments included a surfactant except glufosinate treatments, both alone and in combination. […] Results are summarized in Table 5 and are the means of the three replicates.

velvetleaf (ABUTH) [3] = assay: Test 5 field trial, postemergence; type: in vivo, Abutilon theophrasti
Excerpt: as §3

large crabgrass (DIGSA) = assay: Test 5 field trial, postemergence; type: in vivo, Digitaria sanguinalis
Excerpt: as §3

giant foxtail (SETFA) [4] = assay: Test 5 field trial, postemergence; type: in vivo, Setaria faberi
Excerpt: as §3

yellow foxtail (SETLU) = assay: Test 5 field trial, postemergence; type: in vivo, Setaria glauca
Excerpt: as §3

corn (ZEAMD) [5] = assay: Test 6 field trial, postemergence; type: in vivo, Zea mays ssp. indentata; settings: hybrid Pioneer 35Y62, corn (Zea mays ssp. indentata), in vivo
Excerpt: Corn seeds (hybrid ‘Pioneer 35Y62’) were planted in mid spring season, 3.8 cm deep in a silt loam soil having 4% organic matter and a pH of 5.8. Plots were 10.7 m long by 1.5 m wide with rows spaced 76 cm apart. Seeds were spaced 18 cm apart within the rows. The field was managed using conventional tillage practices. […] All treatments included a surfactant except glufosinate treatments, both alone and in combination. […] Results are summarized in Table 6 and are the means of the three replicates.

redroot pigweed (AMARE) = assay: Test 8 field trial, preemergence; type: in vivo, Amaranthus retroflexus; settings: 56 DAA
Excerpt: (§4) Corn seeds (hybrid ‘Pioneer 31G96’) were planted in mid spring season, 3.8 cm deep in a clay loam soil having 2% organic matter and a pH of 6.6. Plots were 6.1 m long by 3.0 m wide with rows spaced 76 cm apart. Seeds were spaced 15 cm apart within the rows. The field was managed using conventional tillage practices. […] A few of the weed species could not be evaluated at every timing. […] Results are the means of the three replicates.

common ragweed (AMBEL) = assay: Test 8 field trial, preemergence; type: in vivo, Ambrosia artemisiifolia
Excerpt: as §4

giant foxtail (SETFA) [6] = assay: Test 8 field trial, preemergence; type: in vivo, Setaria faberi
Excerpt: as §4

velvetleaf (ABUTH) [7] = assay: Test 10 field trial, preemergence; type: in vivo, Abutilon theophrasti; settings: 28 DAA
Excerpt: (§5) Corn seeds (hybrid ‘Pioneer 33P65 RR’) were planted in mid spring season, 2.5 cm deep in a silt loam soil. Plots were 9.1 m long by 3.0 m wide with rows spaced 76 cm apart. The field was managed using conventional tillage practices. […] Results are the means of the three replicates.

[8] = test system: ivyleaf morningglory (IPOHE); assay: Test 10 field trial, preemergence; type: in vivo, Ipomoea hederacea; settings: 28 DAA
Excerpt: as §5

common cocklebur (XANST) = assay: Test 10 field trial, preemergence; type: in vivo, Xanthium strumarium ssp. strumarium; settings: 28 DAA
Excerpt: as §5

[9] = test system: Brazilian crabgrass (DIGHO); assay: Test 11 field trial, preemergence; type: in vivo, Digitaria horizontalis; design: scale not given here; settings: alone or + atrazine 1500 or metolachlor 2500
Excerpt: Corn seeds (hybrid ‘Pioneer 3041’) were planted in mid spring season, 5 cm deep in a clay soil having 2.6% organic matter and a pH of 5.6. Plots were 8 m long by 1.5 m wide with rows spaced 80 cm apart. Seeds were spaced 15 cm apart within the rows. The field was managed using conventional tillage practices. […] Treatments consisted of Compound 2 or
Goosegrass was not evaluated 16 or 91 days after application.

[10] = 56 DAA, g a.i./ha: Cpd 2 50, S-Metolachlor 1870
[11] = 56 DAA, g a.i./ha: Cpd 2 100, Atrazine 1680, S-Metolachlor 1870
[12] = 56 DAA, g a.i./ha: Cpd 2 150, S-Metolachlor 1870
[13] = g a.i./ha: Cpd 2 50, S-Metolachlor 1870
[14] = g a.i./ha: Cpd 2 100, Atrazine 1680, S-Metolachlor 1870
[15] = g a.i./ha: Cpd 2 150, S-Metolachlor 1870
[16] = 16 DAA, Cpd 2 30 g a.i./ha alone or with glufosinate 470 or glyphosate 1120
[17] = 16 DAA, Cpd 2 60 g a.i./ha alone or with atrazine 1120, glufosinate 470 or glyphosate 1120
[18] = 31 DAA, Cpd 2 30 g a.i./ha alone or with glufosinate 470 or glyphosate 1120
[19] = 31 DAA, Cpd 2 60 g a.i./ha alone or with atrazine 1120, glufosinate 470 or glyphosate 1120
[20] = 19 DAA, g a.i./ha: Cpd 2 50, S-Metolachlor 1870
[21] = 19 DAA, g a.i./ha: Cpd 2 100, Atrazine 1680, S-Metolachlor 1870
[22] = 19 DAA, g a.i./ha: Cpd 2 150, S-Metolachlor 1870
[23] = 29 DAA, g a.i./ha: Cpd 2 50, S-Metolachlor 1870
[24] = 29 DAA, g a.i./ha: Cpd 2 100, Atrazine 1680, S-Metolachlor 1870
[25] = 29 DAA, g a.i./ha: Cpd 2 150, S-Metolachlor 1870

COC(=O)c1nc(C2CC2)nc(N)c1Cl [Compound 2, methyl 6-amino-5-chloro-2-cyclopropyl-4-pyrimidinecarboxylate]
SETFA Obs (giant foxtail (SETFA) [1]; 28 DAA, g a.i./ha: Cpd 2 50, S-Metolachlor 1870): 0 | SETFA Obs (giant foxtail (SETFA) [1]; 28 DAA, g a.i./ha: Cpd 2 100, Atrazine 1680, S-Metolachlor 1870): 0 | SETFA Obs (giant foxtail (SETFA) [1]; 28 DAA, g a.i./ha: Cpd 2 150, S-Metolachlor 1870): 0 | SETFA Obs (giant foxtail (SETFA) [1]; [10]): 0 | SETFA Obs (giant foxtail (SETFA) [1]; [11]): 0 | SETFA Obs (giant foxtail (SETFA) [1]; [12]): 0 | THLAR Obs (field pennycress (THLAR); [13]): 0 | THLAR Obs (field pennycress (THLAR); [14]): 0 | THLAR Obs (field pennycress (THLAR); [15]): 7 | ZEAMD Obs (corn (ZEAMD) [2]; 16 days after application): 0% | ZEAMD Obs (corn (ZEAMD) [2]; 31 days after application): 0% | ABUTH Obs (velvetleaf (ABUTH) [3]; [16]): 76% | ABUTH Obs (velvetleaf (ABUTH) [3]; [17]): 81% | ABUTH Obs (velvetleaf (ABUTH) [3]; [18]): 77% | ABUTH Obs (velvetleaf (ABUTH) [3]; [19]): 82% | DIGSA Obs (large crabgrass (DIGSA); [16]): 0% | DIGSA Obs (large crabgrass (DIGSA); [17]): 0% | DIGSA Obs (large crabgrass (DIGSA); [18]): 0% | DIGSA Obs (large crabgrass (DIGSA); [19]): 2% | SETFA Obs (giant foxtail (SETFA) [4]; [16]): 0% | SETFA Obs (giant foxtail (SETFA) [4]; [17]): 0% | SETFA Obs (giant foxtail (SETFA) [4]; [18]): 0% | SETFA Obs (giant foxtail (SETFA) [4]; [19]): 2% | SETLU Obs (yellow foxtail (SETLU); [16]): 2% | SETLU Obs (yellow foxtail (SETLU); [17]): 0% | SETLU Obs (yellow foxtail (SETLU); [18]): 0% | SETLU Obs (yellow foxtail (SETLU); [19]): 2% | ZEAMD Obs (corn (ZEAMD) [5]; 14 days after application): 0% | ZEAMD Obs (corn (ZEAMD) [5]; 28 days after application): 0% | AMARE Obs (redroot pigweed (AMARE); [13]): 45% | AMARE Obs (redroot pigweed (AMARE); [14]): 100% | AMARE Obs (redroot pigweed (AMARE); [15]): 100% | AMBEL Obs (common ragweed (AMBEL); [20]): 36% | AMBEL Obs (common ragweed (AMBEL); [21]): 73% | AMBEL Obs (common ragweed (AMBEL); [22]): 83% | AMBEL Obs (common ragweed (AMBEL); [23]): 65% | AMBEL Obs (common ragweed (AMBEL); [24]): 88% | AMBEL Obs (common ragweed (AMBEL); [25]): 96% | AMBEL Obs (common ragweed (AMBEL); [10]): 52% | AMBEL Obs (common ragweed (AMBEL); [11]): 90% | AMBEL Obs (common ragweed (AMBEL); [12]): 97% | SETFA Obs (giant foxtail (SETFA) [6]; [20]): 33% | SETFA Obs (giant foxtail (SETFA) [6]; [21]): 40% | SETFA Obs (giant foxtail (SETFA) [6]; [22]): 43% | SETFA Obs (giant foxtail (SETFA) [6]; [23]): 32% | SETFA Obs (giant foxtail (SETFA) [6]; [24]): 42% | SETFA Obs (giant foxtail (SETFA) [6]; [25]): 47% | SETFA Obs (giant foxtail (SETFA) [6]; [10]): 8% | SETFA Obs (giant foxtail (SETFA) [6]; [11]): 7% | SETFA Obs (giant foxtail (SETFA) [6]; [12]): 17% | ABUTH Obs (velvetleaf (ABUTH) [7]; [13]): 7% | ABUTH Obs (velvetleaf (ABUTH) [7]; [14]): 7% | ABUTH Obs (velvetleaf (ABUTH) [7]; [15]): 13% | IPOHE Obs [8, 13]: 13% | IPOHE Obs [8, 14]: 5% | IPOHE Obs [8, 15]: 20% | XANST Obs (common cocklebur (XANST); [13]): 10% | XANST Obs (common cocklebur (XANST); [14]): 7% | XANST Obs (common cocklebur (XANST); [15]): 27% | DIGHO Obs ([9]; 16 DAA, Cpd 2/Cpd 1 at 62 g a.i./ha): 0 | DIGHO Obs ([9]; 16 DAA, Cpd 2/Cpd 1 at 125 g a.i./ha): 40 | DIGHO Obs ([9]; 30 DAA, Cpd 2/Cpd 1 at 62 g a.i./ha): 0 | DIGHO Obs ([9]; 30 DAA, Cpd 2/Cpd 1 at 125 g a.i./ha): 40 | DIGHO Obs ([9]; 44 DAA, Cpd 2/Cpd 1 at 62 g a.i./ha): 0 | DIGHO Obs ([9]; 44 DAA, Cpd 2/Cpd 1 at 125 g a.i./ha): 0 | DIGHO Obs ([9]; 62 DAA, Cpd 2/Cpd 1 at 62 g a.i./ha): 0 | DIGHO Obs ([9]; 62 DAA, Cpd 2/Cpd 1 at 125 g a.i./ha): 0 | DIGHO Obs ([9]; 91 DAA, Cpd 2/Cpd 1 at 62 g a.i./ha): 0 | DIGHO Obs ([9]; 91 DAA, Cpd 2/Cpd 1 at 125 g a.i./ha): 0
